Assay results from patent US7691863B2, “Pyrazine-2-carboxamide derivatives as CB2 receptor modulators” (Hoffman-La Roche Inc., priority 2006, dated 2010).

Target: T1, human cannabinoid CB2 receptor (Homo sapiens, UniProt P34972)
T1 construct: expressed in transfected cells; host or cells: human embryonic kidney (HEK) cells, transient, Semliki Forest virus system
Experiment: Affinity for cannabinoid CB2 receptors, [3H]-CP-55,940 radioligand binding on membrane preparations of transfected HEK cells
Settings: [3H]-CP-55,940 as radioligand, HEK cell membranes
Protocol: The affinity of the compounds of the invention for cannabinoid CB2 receptors was determined using membrane preparations of human embryonic kidney (HEK) cells in which the human cannabinoid CB2 receptor is transiently transfected using the Semliki Forest virus system in conjunction with [3H]-CP-55,940 as radioligand. After incubation of a cell membrane preparation with the [3H]-ligand, with or without addition of compounds of the invention, separation of bound and free ligand was performed by filtration over glassfiber filters. Radioactivity on the filter was measured by liquid scintillation counting.

T1 sequence (P34972 whole entry): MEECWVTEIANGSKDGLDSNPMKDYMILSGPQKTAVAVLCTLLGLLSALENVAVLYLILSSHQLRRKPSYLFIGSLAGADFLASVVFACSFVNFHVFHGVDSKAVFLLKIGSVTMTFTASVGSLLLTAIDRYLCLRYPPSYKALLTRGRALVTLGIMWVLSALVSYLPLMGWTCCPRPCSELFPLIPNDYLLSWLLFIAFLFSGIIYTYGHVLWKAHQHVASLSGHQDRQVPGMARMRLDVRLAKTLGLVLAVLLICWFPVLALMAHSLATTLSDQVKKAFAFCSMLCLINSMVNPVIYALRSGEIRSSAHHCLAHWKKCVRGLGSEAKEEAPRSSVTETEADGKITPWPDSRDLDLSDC

Compound | Ki [µM]
2-Ethyl-2-{[5-pyrrolidin-1-yl-6-(2,2,2-trifluoro-ethoxy)-pyrazine-2-carbonyl]-amino}-pentanoic acid methyl ester [Example 14] | 0.063
CC(C)C[C@@H](CO)NC(=O)c1cnc(OCC2CC2)c(N2CCCCC2)n1 [Example 44, 5-Cyclopropylmethoxy-6-piperidin-1-yl-pyrazine-2-carboxylic acid ((S)-1-hydroxymethyl-3-methyl-butyl)-amide] | 0.043
6-Cyclopropylmethoxy-5-pyrrolidin-1-yl-pyrazine-2-carboxylic acid ((S)-1-hydroxymethyl-3-methyl-butyl)-amide [Example 4] | 0.044
